Test results from patent publication US20200299671A1, “IMMOBILIZED MULTI-ENZYMATIC HALOGENATION SYSTEM” (priority 2019, published 2020).

Assays:
PltM [1] = target: T1, PltM (Pseudomonas protegens, UniProt Q4KCZ3); assay: In vitro PltM halogenation assay with a single halide salt, substrate profile (Assay 1a-1d), LC-MS; type: biochemical
Protocol: The halogenation assays were carried out similarly to a recently described procedure. For substrate profile determination (Assay 1), 100 μL reactions were carried out in 30 mM sodium phosphate pH 7.4. As a halide source, 200 mM of either NaF (Assay 1a), NaCl (Assay 1b), NaBr (Assay 1c), or NaI (Assay 1d) was used. To ensure that PltM is incapable of fluorinating, an additional 200 μL reaction with 300 mM NaF was run. A 200 μL reaction with 400 mM NaBr was also run to ensure no additional bromination reaction occurred. Each reaction also contained a specified substrate (0.5 mM), FAD (0.2 mM), NADPH (5 mM), PltM (5.5 μM), and SsuE (5.0 μM). The reactions were initiated by adding NADPH under N2. The reaction tubes were tightly closed to avoid contact with air. The reaction mixtures were incubated at 25° C. for 3 h prior to extraction with EtOAc (4×100 μL). The organic layer was dried by a gentle flow of air, and the residue was dissolved in MeOH to prepare 1-10 μg/mL samples for LC-MS analysis.
(§1) The halogenation reaction products were analyzed by HPLC or LC-MS by injecting 10 μL of each sample. The compounds were separated by Reversed-phase HPLC at the flow rate of 0.2 mL/min by using the following program: eluent A=H2O; eluent B=MeCN; gradient=2% B for 5 min, increase to 100% B over a 30 min period, stay at 100% B for 9 min, decrease to 2% B over a 1 min period, and re-equilibrate the column at 2% B for 30 min.
(§2) For HPLC analysis, the molecules were observed by absorbance at λ=275 nm as described above. As necessary, the following mass spectrometer was operated in negative and positive modes with the following parameters: For negative mode, mass range, 80-600 m/z in profile mode; temperature, 550° C. and ion spray voltage floating, −4500 V, and for positive mode, mass range, 80-600 m/z in profile mode; temperature, 550° C. and ion spray voltage floating, 4500 V. The presence of each compound was analyzed by extracted ion chromatograph (XIC) with the expected mass ±0.05 Da for Assay 1 and Assay 2 and ±0.005 Da for Assay 3 (FIGS. 2A-C, 8-13, and 17-37; Tables 3-4 and 7).

PltM L111Y = assay: Cell-based activity assay (Assay 3), PltM L111Y; set-up: species or system E. coli BL21 (DE3); conditions: cells expressing L111Y mutant
Protocol: (§3) E. coli BL21 (DE3) cells were transformed with ppltM-pET28a, ppltMK87A-pET28a, ppltML111Y-pET28a, ppltMS404Y-pET28a, and ppltA-pET28a. The ppltA-pET28a plasmid overexpressing the halogenase PltA whose substrate is pyrrolyl-S-PltL (a peptidyl carrier protein-linked pyrrole) was used as a negative control. Five colonies from each transformant were cultured in 2×500 mL of LB medium (for ppltM-pET28a, ppltML111Y-pET28a, and ppltMS404Y-pET28a) and 1×500 mL of LB medium (for ppltMK87A-pET28a and ppltA-pET28a) with 50 μg/mL kanamycin at 37° C. and 200 rpm until attenuance of 0.2 at 600 nm. The cultures were then moved to 25° C. until attenuance of 0.5. Protein expression was induced by adding 0.2 mM IPTG to all […] flasks, and the cultures were incubated with shaking for 1 h. 12.5 μg/mL of compound 1 was added to 1×500 mL of LB medium containing ppltM-pET28a, ppltMK87A-pET28a, ppltML111Y-pET28a, ppltMS404Y-pET28a, and ppltA-pET28a. Compound 1 was not added to the three remaining flasks (negative controls). After additional incubation for 20 h, the cells were pelleted at 5,000 g for 10 min, and the supernatant was collected. The supernatant was extracted with EtOAc (3×330 mL), which was dried in vacuo. […]
(§4) The halogenation reaction products were analyzed by HPLC or LC-MS by injecting 10 μL of each sample. […]
(§5) For HPLC analysis, the molecules were observed by absorbance at λ=275 nm as described above. […]

PltM [2] = target: T1, PltM; assay: Halogenating competition assays in 1:1 or 10:1 mixtures of two halide salts (Assay 2a-2e), LC-MS; type: biochemical
Protocol: To establish if hetero-dihalogenation by PltM could be observed, halogenating competition assays in 1:1 or 10:1 mixtures of two different halide salts were performed (Assay 2). The reactions contained the same components as above except single halide salts were replaced with either a 1:1/NaCl:NaBr (Assay 2a), 1:1/NaCl:NaI (Assay 2b), or 1:1/NaBr:NaI (Assay 2c) mixtures (100 mM of each halide). The reactions were initiated by adding NADPH under N2. A 1:1/NaCl:NaBr reaction was also performed with 200 mM of each halide to test occurrence of homo-di- or hetero-chlorination/bromination, and 10:1/NaCl:NaI (Assay 2d) and 10:1/NaBr:NaI (Assay 2e) mixtures with 200 mM of NaCl or NaBr and 20 mM of NaI were tested to check whether chlorination or bromination could occur in the presence of iodide and whether iodination can occur with chlorination or bromination to yield a C1,I-substrate or Br,I-substrate. The reactions were incubated and processed as described above in Assay 1.
as §1, §2

PltM [3] = target: T1, PltM; assay: Optimized in vitro PltM halogenation assay (PltM, SsuE, GDH), overnight overall yield by HPLC; type: biochemical; conditions: optimized in vitro conditions
Protocol: To increase production of halogenated molecules and decrease the amount of NADPH required, the above in vitro assay was optimized by using an additional enzyme, glucose dehydrogenase (GDH). […] The overall yield of halogenation products was determined for reactions run overnight for several substrates (Table 8). Conversion of the substrate to halogenated products was monitored by HPLC at λ=275-320 nm, where the absorbance of molecules is not affected by halogenation, and quantified as fraction of reaction species (%).
The time course experiments were performed in duplicate. Compound 1 was unstable under these optimized conditions, and it was not tested. The in vitro analysis of K87A mutant was performed overnight in 100 μL reaction mixture by using the compound 11 as a substrate. Wild-type PltM was used as a positive control, and no enzyme reaction was used as a negative control. In all above reactions, the compounds were extracted with EtOAc (4×100 μL) and dried under gentle air flow.
as §1, §2

PltA = target: T2, PltA (Pseudomonas fluorescens, UniProt Q4KCZ0); assay: Cell-based activity assay (Assay 3), PltA negative control; set-up: species or system E. coli BL21 (DE3); conditions: cultures expressing PltA (negative control)
T2 construct: expressed in transfected cells; host or cells: E. coli BL21 (DE3)
T2 sequence (Q4KCZ0 whole entry): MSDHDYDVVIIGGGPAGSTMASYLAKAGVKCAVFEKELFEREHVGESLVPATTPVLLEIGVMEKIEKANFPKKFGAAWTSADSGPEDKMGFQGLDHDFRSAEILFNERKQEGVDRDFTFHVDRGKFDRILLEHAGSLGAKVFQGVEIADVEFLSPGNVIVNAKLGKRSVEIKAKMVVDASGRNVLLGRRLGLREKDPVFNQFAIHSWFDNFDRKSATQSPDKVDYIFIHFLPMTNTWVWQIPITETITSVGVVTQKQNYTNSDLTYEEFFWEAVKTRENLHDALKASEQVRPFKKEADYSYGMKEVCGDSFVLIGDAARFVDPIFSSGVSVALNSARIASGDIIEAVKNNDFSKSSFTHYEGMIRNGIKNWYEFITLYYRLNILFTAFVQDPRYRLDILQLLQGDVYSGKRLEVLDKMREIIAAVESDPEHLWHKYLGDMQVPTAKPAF
Protocol: as §3, §4, §5

T1 sequence (Q4KCZ3 entry or part of it): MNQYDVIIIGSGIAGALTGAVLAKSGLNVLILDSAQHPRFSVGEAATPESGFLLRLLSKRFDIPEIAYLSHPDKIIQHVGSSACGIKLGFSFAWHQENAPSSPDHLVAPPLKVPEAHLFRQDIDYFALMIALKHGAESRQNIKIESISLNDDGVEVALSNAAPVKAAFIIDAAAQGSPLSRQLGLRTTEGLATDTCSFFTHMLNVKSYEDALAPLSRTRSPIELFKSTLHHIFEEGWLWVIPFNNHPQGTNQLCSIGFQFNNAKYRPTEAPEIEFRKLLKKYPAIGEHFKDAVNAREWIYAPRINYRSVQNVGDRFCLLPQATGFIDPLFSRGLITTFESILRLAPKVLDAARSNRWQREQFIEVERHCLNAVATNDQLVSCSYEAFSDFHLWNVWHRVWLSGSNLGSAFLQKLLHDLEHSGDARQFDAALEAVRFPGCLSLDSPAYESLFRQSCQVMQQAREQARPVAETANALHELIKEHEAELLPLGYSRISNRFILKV

With Oc1cc(O)cc(O)c1 [Compound 1, phloroglucinol] the “bromination by PltM (products identified by LC-MS)” value (PltM [1]; NaBr as halide source (Assay 1c)) was “only mono-halogenation”, the “chlorination by PltM (products identified by LC-MS)” value (PltM [1]; NaCl as halide source (Assay 1b)) was “Mono- and dihalogenation” and the “fluorination by PltM (products identified by LC-MS)” value (PltM [1]; NaF as halide source (Assay 1a)) was “not fluorinated”. The “iodination by PltM (products identified by LC-MS)” value (PltM [1]; NaI as halide source (Assay 1d)) was “Mono- and dihalogenation”, the “halogenation in fermentation culture” value (PltM L111Y) was “product yield was significantly reduced compared to wild-type” and the “products of competitive halogenation” value (PltM [2]; 10-fold molar excess of NaBr over NaI) was “mono-brominated, mono-iodinated, and diiodinated 1 were identified”. For the same compound, the “products of competitive halogenation” value (PltM [2]; 10-fold molar excess of NaCl over NaI) was “all possible mono- and dihalogenated products were identified, including chloro-iodinated 1”, the “products of competitive halogenation” value (PltM [2]; two halides (Cl/Br, Cl/I or Br/I) at equimolar ratios) was “mono-halogenated products of either halogen and diiodinated 1 where NaI was used” and the “stability under optimized reaction conditions” value (PltM [3]) was “unstable”. The “halogenation in fermentation culture” value (PltA) was “No halogenated product was observed”.
